Reference: ChEMBL document CHEMBL3112509, “Synthesis and antimicrobial activity of (1,4-phenylene)bis(arylsulfonylpyrazoles and isoxazoles)” (2014)
Activity calls are given as the source filed them. No cut-off for these calls is given here.

Columns and labels:
Format in all cases: functional
Penicillium chrysogenum [1] = test: Antifungal activity against Penicillium chrysogenum at 100 ug/well after 48 hrs by agar well diffusion method; details: read-out: DIZ
Penicillium chrysogenum [2] = test: Antifungal activity against Penicillium chrysogenum at 50 ug/well after 48 hrs by agar well diffusion method; details: read-out: DIZ
Aspergillus niger [3] = test: Antifungal activity against Aspergillus niger at 50 ug/well after 48 hrs by agar well diffusion method; details: read-out: DIZ
Aspergillus niger [4] = test: Antifungal activity against Aspergillus niger at 100 ug/well after 48 hrs by agar well diffusion method; details: read-out: DIZ
Klebsiella pneumoniae [5] = test: Antibacterial activity against Klebsiella pneumoniae at 100 ug/well after 24 hrs by agar well diffusion method; details: for zone of inhibition at 100 µg/disc: read-out: DIZ
Klebsiella pneumoniae [6] = test: Antibacterial activity against Klebsiella pneumoniae at 50 ug/well after 24 hrs by agar well diffusion method; details: for zone of inhibition at 50 µg/disc: read-out: DIZ
Pseudomonas aeruginosa [7] = test: Antibacterial activity against Pseudomonas aeruginosa at 100 ug/well after 24 hrs by agar well diffusion method; details: for zone of inhibition at 100 µg/disc: read-out: DIZ
Pseudomonas aeruginosa [8] = test: Antibacterial activity against Pseudomonas aeruginosa at 50 ug/well after 24 hrs by agar well diffusion method; details: for zone of inhibition at 50 µg/disc: read-out: DIZ
Bacillus subtilis [9] = test: Antibacterial activity against Bacillus subtilis at 100 ug/well after 24 hrs by agar well diffusion method; details: for zone of inhibition at 100 µg/disc: read-out: DIZ
Bacillus subtilis [10] = test: Antibacterial activity against Bacillus subtilis at 50 ug/well after 24 hrs by agar well diffusion method; details: for zone of inhibition at 50 µg/disc: read-out: DIZ
Staphylococcus aureus [11] = test: Antibacterial activity against Staphylococcus aureus at 100 ug/well after 24 hrs by agar well diffusion method; details: for zone of inhibition at 100 µg/disc: read-out: DIZ
Staphylococcus aureus [12] = test: Antibacterial activity against Staphylococcus aureus at 50 ug/well after 24 hrs by agar well diffusion method; details: for zone of inhibition at 50 µg/disc: read-out: DIZ

Row | SMILES | zone of inhibition at 100 µg/disc (Penicillium chrysogenum [1]) [mm] | zone of inhibition at 50 µg/disc (Penicillium chrysogenum [2]) [mm] | zone of inhibition at 50 µg/disc (Aspergillus niger [3]) [mm] | zone of inhibition at 100 µg/disc (Aspergillus niger [4]) [mm] | zone of inhibition at 100 µg/disc (Klebsiella pneumoniae [5]) [mm] | zone of inhibition at 50 µg/disc (Klebsiella pneumoniae [6]) [mm] | zone of inhibition at 100 µg/disc (Pseudomonas aeruginosa [7]) [mm] | zone of inhibition at 50 µg/disc (Pseudomonas aeruginosa [8]) [mm] | zone of inhibition at 100 µg/disc (Bacillus subtilis [9]) [mm] | zone of inhibition at 50 µg/disc (Bacillus subtilis [10]) [mm] | zone of inhibition at 100 µg/disc (Staphylococcus aureus [11]) [mm] | zone of inhibition at 50 µg/disc (Staphylococcus aureus [12]) [mm] | diameter of the inhibition zone (DIZ) (Pseudomonas aeruginosa [7]) | diameter of the inhibition zone (DIZ) (Pseudomonas aeruginosa [8]) | diameter of the inhibition zone (DIZ) (Klebsiella pneumoniae [5]) | diameter of the inhibition zone (DIZ) (Klebsiella pneumoniae [6]) | diameter of the inhibition zone (DIZ) (Bacillus subtilis [9]) | diameter of the inhibition zone (DIZ) (Bacillus subtilis [10]) | diameter of the inhibition zone (DIZ) (Staphylococcus aureus [11]) | diameter of the inhibition zone (DIZ) (Staphylococcus aureus [12])
1 | COc1ccc(-c2nn(-c3ccccc3)c(-c3ccc(-c4c(S(=O)(=O)c5ccc(C)cc5)c(-c5ccc(OC)cc5)nn4-c4ccccc4)cc3)c2S(=O)(=O)c2ccc(C)cc2)cc1 | 24 | 22 | 19 | 21 | 15 | 13 | 13 | 11 | 22 | 20 | 18 | 15 | – | – | – | – | – | – | – | –
2 | O=S(=O)(c1ccc(Cl)cc1)C1C(c2ccc(Cl)cc2)=NOC1c1ccc(C2ON=C(c3ccc(Cl)cc3)C2S(=O)(=O)c2ccc(Cl)cc2)cc1 (stereo not given) | 23 | 21 | 18 | 20 | 14 | 12 | 13 | 11 | 21 | 19 | 16 | 14 | – | – | – | – | – | – | – | –
3 | COc1ccc(-c2noc(-c3ccc(-c4onc(-c5ccc(OC)cc5)c4S(=O)(=O)c4ccccc4)cc3)c2S(=O)(=O)c2ccccc2)cc1 | 29 | 26 | 27 | 30 | 21 | 18 | 18 | 16 | 28 | 26 | 23 | 20 | – | – | – | – | – | – | – | –
4 | Cc1ccc(S(=O)(=O)c2c(-c3ccc(Cl)cc3)nn(-c3ccccc3)c2-c2ccc(-c3c(S(=O)(=O)c4ccc(C)cc4)c(-c4ccc(Cl)cc4)nn3-c3ccccc3)cc2)cc1 | 29 | 26 | 22 | 26 | 23 | 21 | 18 | 15 | 30 | 28 | 26 | 24 | – | – | – | – | – | – | – | –
5 | Cc1ccc(S(=O)(=O)C2C(c3ccc(Cl)cc3)=NOC2c2ccc(C3ON=C(c4ccc(Cl)cc4)C3S(=O)(=O)c3ccc(C)cc3)cc2)cc1 (stereo not given) | 21 | 17 | 15 | 17 | 12 | 10 | – | – | 18 | 16 | 15 | 12 | inactive | inactive | – | – | – | – | – | –
6 | COc1ccc(C2=NOC(c3ccc(C4ON=C(c5ccc(OC)cc5)C4S(=O)(=O)c4ccc(Cl)cc4)cc3)C2S(=O)(=O)c2ccc(Cl)cc2)cc1 (stereo not given) | 19 | 16 | 14 | 16 | 11 | 9 | – | – | 15 | 13 | 12 | 9 | inactive | inactive | – | – | – | – | – | –
7 | COc1ccc(C2=NN(c3ccccc3)C(c3ccc(C4C(S(=O)(=O)c5ccc(C)cc5)C(c5ccc(OC)cc5)=NN4c4ccccc4)cc3)C2S(=O)(=O)c2ccc(C)cc2)cc1 (stereo not given) | 13 | 10 | 8 | 9 | – | – | – | – | – | – | – | – | inactive | inactive | inactive | inactive | inactive | inactive | inactive | inactive
8 | COc1ccc(-c2nn(-c3ccccc3)c(-c3ccc(-c4c(S(=O)(=O)c5ccccc5)c(-c5ccc(OC)cc5)nn4-c4ccccc4)cc3)c2S(=O)(=O)c2ccccc2)cc1 | 25 | 23 | 20 | 22 | 16 | 15 | 14 | 12 | 24 | 20 | 19 | 17 | – | – | – | – | – | – | – | –
9 | O=S(=O)(c1ccccc1)C1C(c2ccc(Cl)cc2)=NN(c2ccccc2)C1c1ccc(C2C(S(=O)(=O)c3ccccc3)C(c3ccc(Cl)cc3)=NN2c2ccccc2)cc1 (stereo not given) | 18 | 15 | 13 | 15 | 12 | 10 | – | – | 14 | 12 | 13 | 11 | inactive | inactive | – | – | – | – | – | –
10 | COc1ccc(-c2noc(-c3ccc(-c4onc(-c5ccc(OC)cc5)c4S(=O)(=O)c4ccc(C)cc4)cc3)c2S(=O)(=O)c2ccc(C)cc2)cc1 | 27 | 25 | 22 | 24 | 18 | 16 | 17 | 15 | 27 | 25 | 22 | 20 | – | – | – | – | – | – | – | –
11 | COc1ccc(-c2nn(-c3ccccc3)c(-c3ccc(-c4c(S(=O)(=O)c5ccc(Cl)cc5)c(-c5ccc(OC)cc5)nn4-c4ccccc4)cc3)c2S(=O)(=O)c2ccc(Cl)cc2)cc1 | 26 | 24 | 25 | 27 | 17 | 15 | 16 | 14 | 25 | 23 | 20 | 18 | – | – | – | – | – | – | – | –
12 | COc1ccc(C2=NN(c3ccccc3)C(c3ccc(C4C(S(=O)(=O)c5ccc(Cl)cc5)C(c5ccc(OC)cc5)=NN4c4ccccc4)cc3)C2S(=O)(=O)c2ccc(Cl)cc2)cc1 (stereo not given) | 17 | 15 | 10 | 11 | – | – | – | – | – | – | – | – | inactive | inactive | inactive | inactive | inactive | inactive | inactive | inactive
13 | O=S(=O)(c1ccccc1)c1c(-c2ccc(Cl)cc2)nn(-c2ccccc2)c1-c1ccc(-c2c(S(=O)(=O)c3ccccc3)c(-c3ccc(Cl)cc3)nn2-c2ccccc2)cc1 | 30 | 27 | 24 | 27 | 23 | 21 | 19 | 17 | 31 | 28 | 25 | 23 | – | – | – | – | – | – | – | –
14 | COc1ccc(-c2noc(-c3ccc(-c4onc(-c5ccc(OC)cc5)c4S(=O)(=O)c4ccc(Cl)cc4)cc3)c2S(=O)(=O)c2ccc(Cl)cc2)cc1 | 30 | 27 | 23 | 26 | 24 | 22 | 20 | 17 | 32 | 30 | 26 | 23 | – | – | – | – | – | – | – | –
15 | COc1ccc(C2=NN(c3ccccc3)C(c3ccc(C4C(S(=O)(=O)c5ccccc5)C(c5ccc(OC)cc5)=NN4c4ccccc4)cc3)C2S(=O)(=O)c2ccccc2)cc1 (stereo not given) | 16 | 12 | 8 | 10 | – | – | – | – | – | – | – | – | inactive | inactive | inactive | inactive | inactive | inactive | inactive | inactive
